How the values were obtained:
[1] = test system: fetal rat bones (radii and ulnae) in organ culture; test: PTH-induced bone resorption in organ culture (45calcium release); type: cell-based
Procedure: The technique used to assess bone resorption is based on monitoring the release of radioactive calcium, previously incorporated by embryonic bones in vivo, during organ culture. Pregnant Sprague-Dawley rats were injected subcutaneously with 200 μCi of ^45 calcium chloride on the 18th day of gestation. The following day, the animals were killed, the fetuses removed, and the radii and ulnae dissected under aseptic conditions. […] The bones were then randomly distributed and each bone, either a radius or ulna, was incubated in 0.5 ml of culture media alone or in a media containing parathyroid hormone (PTH: human synthetic 1-34 peptide, Beckman Instruments, Inc., Palo Alto, California) added in a final concentration of 1.0 μg/ml; the experimental bones were incubated in the PTH containing medium to which was added different concentrations (0.2-300 μg/ml) of the antibiotics to be tested. The bones were cultured for 5 days, with the media being changed after day 2, and the incubation terminated. The bones were decalcified in 0.2 ml of 5% trichloroacetic acid and the ^45 calcium content of the residual bones and of the culture media was measured as described previously. (Werner and Raisz, Endocrinology, 90, 752 (1972 ) and Gomes, et. al., Calc. Tiss. Res., 19, 285 (1976)). The ^45 calcium released into the media was calculated as a percentage of the total radioactive calcium measured in the bones.

rheumatoid arthritis = settings: in vivo; cited from earlier work
[2] = test system: periodontal disease in patients; settings: patients who did not respond to routine periodontal therapy; cited from earlier work
[3] = biological target: T1, rat PMNL collagenolytic activity (PMNL collagenase) (Rattus norvegicus, UniProt O88766); test: Rat PMNL collagenolytic activity in vitro (14C-collagen gel lysis); type: biochemical; settings: Table 2; PMNL extract (30 × 10^6 PMNLs per ml) + 20 ug/ml; control extract 39.0
T1 construct: An extract of PMNLs was prepared; from tissue; host or cells: extract of peritoneal exudate polymorphonuclear leucocytes of non-diabetic rats, elicited with glycogen
T1 sequence (O88766 102-466): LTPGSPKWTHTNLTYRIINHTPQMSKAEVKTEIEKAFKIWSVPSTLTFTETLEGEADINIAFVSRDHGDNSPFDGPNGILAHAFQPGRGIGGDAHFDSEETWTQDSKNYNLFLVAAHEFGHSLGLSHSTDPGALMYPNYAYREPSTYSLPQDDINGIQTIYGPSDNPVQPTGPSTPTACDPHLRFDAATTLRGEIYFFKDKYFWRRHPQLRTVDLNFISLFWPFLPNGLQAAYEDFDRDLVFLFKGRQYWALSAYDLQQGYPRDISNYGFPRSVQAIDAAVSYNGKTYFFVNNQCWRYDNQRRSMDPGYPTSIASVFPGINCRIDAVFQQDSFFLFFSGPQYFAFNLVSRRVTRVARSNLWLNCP
Procedure: To test the effect of physiologic levels of minocycline (the concentration in human serum, during a therapeutic regimen, is approximately 2 ug/ml; that in the gingival crevicular fluid is 4-5 times greater; Ciancio, et. al., 1980, J. Periodontol., 51, 531-534) on mammalian collagenolytic activity in vitro, peritonealexudate polymorphomuclear leucocytes (PMNLs) were collected from 15 mole (non-diabetic) rats 4 hours after I.P. injection of 0.15% glycogen. An extract of PMNLs was prepared, 250 μl aliquots of this extract were incubated with ^14 C-glycine labeled collagen fibrils for 14 hours at 35° C. (in the presence or absence of minocycline, or EDTA, or additional CaCl2), and collagenolytic activity was measured as described by Nicoll, et al., (Experientia., 37, 315-317).
The techniques used to measure the collagenolytic enzyme activity of gingival tissue in culture, and in polymorphonuclear leucocytes (PMNLs), are those described by Golub, et. al., (J. Dent. Res., 57, 520-525 (197)8) and Nicoll, et. al., (Experimentia, 37, 315-317, (1981)) with minor modifications.

[4] = test system: periodontal disease in dogs; settings: dogs on long-term therapy; cited from earlier work

CN(C)[C@@H]1C(=O)C(C(N)=O)=C(O)[C@@]2(O)C(=O)C3=C(O)c4c(O)cccc4[C@@](C)(O)[C@H]3C[C@@H]12 [tetracycline, Tetracycline]
^45 Calcium in Fetal Bone Released into Media (%) after 2 days incubation ([1]; Table 4, first column, PTH + 0.2 μg/ml): 58.4 ± 1.3% | ^45 Calcium in Fetal Bone Released into Media (%) after 2 days incubation ([1]; Table 4, first column, PTH + 2.0 μg/ml): 59.9 ± 1.5% | ^45 Calcium in Fetal Bone Released into Media (%) after 2 days incubation ([1]; Table 4, first column, PTH + 20 μg/ml): 45.0 ± 0.7% | ^45 Calcium in Fetal Bone Released into Media (%) after 2 days incubation ([1]; Table 4, first column, PTH + 200 μg/ml): 14.4 ± 0.4% | ^45 Calcium in Fetal Bone Released into Media (%) after 2 days incubation ([1]; Table 4, second column, PTH + 0.2 μg/ml): 93.0 ± 1.7% | ^45 Calcium in Fetal Bone Released into Media (%) after 2 days incubation ([1]; Table 4, second column, PTH + 2.0 μg/ml): 97.2 ± 0.8% | ^45 Calcium in Fetal Bone Released into Media (%) after 2 days incubation ([1]; Table 4, second column, PTH + 20 μg/ml): 69.4 ± 3.5% | ^45 Calcium in Fetal Bone Released into Media (%) after 2 days incubation ([1]; Table 4, second column, PTH + 200 μg/ml): 19.8 ± 0.5% | effect on PTH-enhanced bone resorption, in words ([1]; concentrations 0.2-300 μg/ml): inhibited bone resorption in a dose responsive manner | treatment of rheumatoid arthritis (rheumatoid arthritis): effective | clinical benefit of long-term use [2]: clinically beneficial | Collagenolytic Activity: % ^14 C-collagen gel lyzed [3]: 2.0% | periodontal disease [4]: significant improvement
